Results published in patent US20250197864A1, “LNCRNA TRANSCRIPTS IN MELANOMAGENESIS” (The Regents of the University of California, priority 2021, published 2025).
{Chol} = cholesterol

Key:
Experiment in all cases: Cell viability assay (ATP quantitation)
[1] = test system: AV5 primary melanoma cell line; format: cell-based, human; settings: 50 nM, 5 days (120 hrs), vs non-targeting control
Experimental: (§1) EsiRNA, siRNA and ASO GapmeRs were transfected in a final concentration of 50 nM unless mentioned otherwise and the transfection reagent Lipofectamine 3000 (2 ul/ml) was added according to the manufacturer's instructions.
(§2) Dependent on cell doubling time, 0.7-2×10^^3 cells were seeded in 96 well plates. 1 day after seeding cells were incubated in media with oligonucleotide concentration and/or MEKi and transfection reagent. 3 (synergy experiments) or 5 (solely ASO) days after transfection Total luminescence was measured on the SynergyHT plate reader (BioTek) using Gen5 software.

D04 melanoma cell line = format: cell-based, human; settings: 50 nM, 5 days (120 hrs), vs non-targeting control
Experimental: as §1, §2

[2] = test system: Sk-Mel-28 melanoma cell line; format: cell-based, human; settings: 50 nM, 5 days (120 hrs), vs non-targeting control
Experimental: as §1, §2

MM415 melanoma cell line = format: cell-based, human; settings: 50 nM, 5 days (120 hrs), vs non-targeting control
Experimental: as §1, §2

[3] = test system: Sk-Mel-2 melanoma cell line; format: cell-based, human; settings: 50 nM, 5 days (120 hrs), vs non-targeting control
Experimental: as §1, §2

[4] = test system: WM3629 melanoma cell line; format: cell-based, human; settings: 50 nM, 5 days (120 hrs), vs non-targeting control
Experimental: as §1, §2

[5] = test system: MaMel30 melanoma cell line; format: cell-based; settings: 50 nM, 5 days, vs non-targeting control
Experimental: as §1, §2

[6] = test system: Sk-N-AS Neuroblastoma cell line; format: cell-based; settings: 50 nM, 5 days, vs non-targeting control
Experimental: as §1, §2

[7] = test system: hepatocellular carcinoma cell line HepG2; format: cell-based; settings: 50 nM, 120 hrs, Lipofectamine3000 2 ul/ml, vs non-targeting control ASO
Experimental: as §1, §2
(§3) Cell viability was compared to treatment with non-targeting control ASO-treatment. Lipofectamine3000 concentration was 2 ul/ml.

[8] = test system: sarcoma cell line SK-LMS-1; format: cell-based; settings: SK-LMS-1 sarcoma; 50 nM, 120 hrs; Lipofectamine3000 2 ul/ml; vs non-targeting control ASO
Experimental: as §1, §2, §3

[9] = test system: Hs852.T primary melanoma cell line; format: cell-based, human; settings: 50 nM, 5 days (120 hrs), vs non-targeting control
Experimental: as §1, §2

VMM39 melanoma cell line = format: cell-based, human; settings: 50 nM, 5 days (120 hrs), vs non-targeting control
Experimental: as §1, §2

[10] = test system: WM1366 melanoma cell line; format: cell-based, human; settings: 50 nM, 5 days (120 hrs), vs non-targeting control
Experimental: as §1, §2

[11] = test system: WM3211 melanoma cell line; format: cell-based, human; settings: 50 nM, 5 days (120 hrs), vs non-targeting control
Experimental: as §1, §2

Measured: cell viability decrease

CCCAGAAGCUAGAGGUAAAUU (antisense UUUACCUCUAGCUUCUGGGUU; listed as RNA, chemistry not given here) [SEQ ID NO: 23, siRNA targeting BX470102.3-008]
significant cell viability decrease: [1] | D04 melanoma cell line | [2]

AGCAAUGACUCCUGAACAUUU (antisense AUGUUCAGGAGUCAUUGCUUU; siRNA; 5' phosphate on antisense strand, other chemistry not given here) [SEQ ID NO: 27, siRNA targeting RP11-7011.3]
significant cell viability decrease: [1] | D04 melanoma cell line | [2]

5′-AUUUCAUGUCUGAAGCAAUUCUACT-3′ (chain 2 AAUAAAGUACAGACUUCGUUAAGAUGA; chemistry not given here; one strand is listed 3' to 5') [SEQ ID NO: 44]
significant cell viability decrease: D04 melanoma cell line | MM415 melanoma cell line | [3] | [4]

GTAAGTAGGAGCTGTG (QIAGEN GapmeR, modification pattern not given here) [SEQ ID NO: 22, Antisense oligonucleotide targeting AL157871.4-201]
significant cell viability decrease: D04 melanoma cell line | MM415 melanoma cell line | [3] | [2] | [5] | [6]

5′-GGUAAAAACAUGAAGCUAAUAGUUA-3′ (chain 2 ACCCAUUUUUGUACUUCGAUUAUCAAU; listed as RNA, chemistry not given here; one strand is listed 3' to 5') [SEQ ID NO: 42]
significant cell viability decrease: D04 melanoma cell line | MM415 melanoma cell line | [3]

UGGAUAAUGAUAAGGUCUAUU (antisense UAGACCUUAUCAUUAUCCAUU; listed as RNA, chemistry not given here) [SEQ ID NO: 39, siRNA targeting AL157871.4-201]
significant cell viability decrease: D04 melanoma cell line

GACTGGAGATAATTAA-Cholesterol (3' {Chol}, sugars by position and backbone not given here; GapmeR, chemically modified) [SEQ ID NO:47, TRASH targeting ASO with additional Cholesterol modification]
significant cell viability decrease: D04 melanoma cell line | MM415 melanoma cell line | [7] | [8]

GGAAAGGCGAGCUGAGCAUUU (antisense AUGCUCAGCUCGCCUUUCCUU; listed as RNA, chemistry not given here) [SEQ ID NO: 37, siRNA targeting ARF-AS1 isoform 1]
significant cell viability decrease: D04 melanoma cell line

GAGUAACAGAGGAGAACUUUU (antisense AAGUUCUCCUCUGUUACUCUU; siRNA; 5' phosphate on antisense strand, other chemistry not given here) [SEQ ID NO: 25, siRNA targeting both isoforms of AC004540.4]
significant cell viability decrease: [1]

AGATGGCTCTGTAAGA (QIAGEN GapmeR, modification pattern not given here) [SEQ ID NO: 49, Antisense oligonucleotide targeting SNX10]
significant cell viability decrease: D04 melanoma cell line

5′-UCACAAAGAGAGACAGGAAUU-3′ (chain 2 UUCCUGUCUCUCUUUGUGAUU; listed as RNA, chemistry not given here) [SEQ ID NO:46]
significant cell viability decrease: D04 melanoma cell line | MM415 melanoma cell line

CTCATGAGCTGTCGTA (QIAGEN GapmeR, modification pattern not given here) [SEQ ID NO: 41, Antisense oligonucleotide targeting AC004540.4-001 and AC004540.4-002]
not listed: [5] | [6]
significant cell viability decrease: all other assays above

ATTGATGAAAGGTGAA (QIAGEN GapmeR, modification pattern not given here) [SEQ ID NO: 19, Antisense oligonucleotide targeting ARF-AS1-201, ARF-AS1-202 and ARF-AS1-203]
significant cell viability decrease: D04 melanoma cell line | MM415 melanoma cell line | [3] | [2] | [5] | [6]

5′-GCCAACAGCAUGUCAAUUCAGUGAT-3′ (chain 2 GACGGUUGUCGUACAGUUAAGUCACUA; chemistry not given here; one strand is listed 3' to 5') [SEQ ID NO: 43]
significant cell viability decrease: D04 melanoma cell line | [3] | [4]

GCGTCAACTAAAGCAA (QIAGEN GapmeR, modification pattern not given here) [SEQ ID NO: 20, Antisense oligonucleotide targeting ARF-AS1-202 and ARF-AS1-203]
significant cell viability decrease: D04 melanoma cell line | MM415 melanoma cell line | [3] | [2] | [6]

AAGTCCTTGGTTGATG (QIAGEN GapmeR, modification pattern not given here) [SEQ ID NO: 21, Antisense oligonucleotide targeting AL157871.4-201]
significant cell viability decrease: D04 melanoma cell line | MM415 melanoma cell line | [3] | [2] | [6]
